Target: Poly [ADP-ribose] polymerase 1 (Homo sapiens, UniProt P09874)
Assay: Enzyme Inhibitory Assay: The activity of the compounds according to the present invention to inhibit the PARP-1 enzyme was examined using a PARP Assay kit (4671-096-K) purchased from Trevigen. The assay was performed following a modified previously reported method by Lee et al [Methods Find, Exp. Clin. Pharmacol., 27, 617-622, 2005].Histone was coated on 384-well plate, which is a small volume PS plate (784101) of Greiner Bio-One, and left at 25 C. for 2 hours. After that, the plate was rinsed four times with PBS (7.5 mM Na2HPO4, 2.5 mM NaH2PO4, 145 mM NaCl, pH 7.4), and in order to prevent non-specific reaction, the Strep-diluent (provided from kit of Trevigen) was added and left at 25 C. for one hour. After one hour, the plate was again rinsed with PBS four times, and the compounds of the Examples in various concentrations were put into reactant containing PARP-1 enzyme (0.12 unit/well), 2x PARP cocktail.

Chain of Poly [ADP-ribose] polymerase 1 (P09874 whole entry): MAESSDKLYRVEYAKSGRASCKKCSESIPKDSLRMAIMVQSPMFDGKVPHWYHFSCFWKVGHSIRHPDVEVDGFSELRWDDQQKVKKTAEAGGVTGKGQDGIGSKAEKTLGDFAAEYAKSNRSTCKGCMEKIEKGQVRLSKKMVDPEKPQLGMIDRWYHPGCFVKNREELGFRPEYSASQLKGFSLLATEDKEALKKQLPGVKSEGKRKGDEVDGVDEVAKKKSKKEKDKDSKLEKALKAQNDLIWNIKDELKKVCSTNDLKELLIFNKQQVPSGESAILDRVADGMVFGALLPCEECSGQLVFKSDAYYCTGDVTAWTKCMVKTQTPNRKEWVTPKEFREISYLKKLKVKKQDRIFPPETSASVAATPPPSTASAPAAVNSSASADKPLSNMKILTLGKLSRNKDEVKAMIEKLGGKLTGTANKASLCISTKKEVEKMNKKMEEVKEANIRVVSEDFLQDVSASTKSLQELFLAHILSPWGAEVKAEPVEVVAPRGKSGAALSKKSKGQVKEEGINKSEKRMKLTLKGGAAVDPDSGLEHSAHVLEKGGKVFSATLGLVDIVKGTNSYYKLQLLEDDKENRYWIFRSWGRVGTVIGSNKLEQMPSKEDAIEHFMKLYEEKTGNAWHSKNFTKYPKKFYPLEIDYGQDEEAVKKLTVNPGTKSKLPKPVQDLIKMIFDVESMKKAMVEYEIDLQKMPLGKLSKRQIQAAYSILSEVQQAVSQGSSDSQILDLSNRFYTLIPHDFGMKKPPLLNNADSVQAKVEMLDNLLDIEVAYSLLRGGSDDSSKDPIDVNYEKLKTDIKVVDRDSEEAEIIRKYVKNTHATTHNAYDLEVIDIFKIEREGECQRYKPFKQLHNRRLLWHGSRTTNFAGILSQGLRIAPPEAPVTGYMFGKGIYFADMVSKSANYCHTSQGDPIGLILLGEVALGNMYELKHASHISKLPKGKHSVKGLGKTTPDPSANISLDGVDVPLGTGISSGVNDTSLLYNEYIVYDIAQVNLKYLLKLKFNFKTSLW

Row | Structure (SMILES) | IC50
1 | COc1cc(C[N+](C)(C)C2CCCC2)cc2[nH]c(=O)c3c(c12)NCCC3 | 290 nM
2 | CN(C)CCOc1ccc2c3c(c(=O)[nH]c2c1)CCCN3 | 1620 nM
3 | CN(C)Cc1cc(O)c2c3c(c(=O)[nH]c2c1)CCCN3 | 750 nM

From ChEMBL document CHEMBL3638589, “Tricyclic derivative or pharmaceutically acceptable salts thereof, preparation method thereof, and pharmaceutical composition containing the same” (2014)
